Measured values as given in ChEMBL document CHEMBL1909046, “DrugMatrix in vitro pharmacology data”.

Columns and labels:
[1] = target: Beta-2 adrenergic receptor (Homo sapiens, UniProt P07550); assay: DRUGMATRIX: Adrenergic beta2 radioligand binding (ligand: [3H] CGP-12177); type: cell membranes, CHO, Membrane; settings: cho; Not Active = under 50% inhibition at 10 µM
[2] = DRUGMATRIX: GABAA, Chloride Channel, TBOB radioligand binding (ligand: [3H] TBOB); type: cell membranes, Rattus norvegicus, Wistar, Cerebral cortex, Membrane; settings: Not Active = under 50% inhibition at 10 µM
[3] = DRUGMATRIX: Glutamate, NMDA, Agonism radioligand binding (ligand: [3H] CGP-39653); type: cell membranes, Rattus norvegicus, Wistar, Cerebral cortex, Membrane; settings: Not Active = under 50% inhibition at 10 µM
[4] = DRUGMATRIX: Interleukin IL-1 radioligand binding (ligand: [125I] interleukin 1beta); type: cell membranes, Membrane; settings: nih3t3; Not Active = under 50% inhibition at 10 µM
[5] = target: T1, Muscarinic acetylcholine receptor M4 (Homo sapiens, UniProt P08173); type: cell membranes, CHO-K1, Membrane; settings: cho-k1; note: in other assays of this panel Not Active means under 50% inhibition at 10 µM
T1 sequence (P08173 whole entry): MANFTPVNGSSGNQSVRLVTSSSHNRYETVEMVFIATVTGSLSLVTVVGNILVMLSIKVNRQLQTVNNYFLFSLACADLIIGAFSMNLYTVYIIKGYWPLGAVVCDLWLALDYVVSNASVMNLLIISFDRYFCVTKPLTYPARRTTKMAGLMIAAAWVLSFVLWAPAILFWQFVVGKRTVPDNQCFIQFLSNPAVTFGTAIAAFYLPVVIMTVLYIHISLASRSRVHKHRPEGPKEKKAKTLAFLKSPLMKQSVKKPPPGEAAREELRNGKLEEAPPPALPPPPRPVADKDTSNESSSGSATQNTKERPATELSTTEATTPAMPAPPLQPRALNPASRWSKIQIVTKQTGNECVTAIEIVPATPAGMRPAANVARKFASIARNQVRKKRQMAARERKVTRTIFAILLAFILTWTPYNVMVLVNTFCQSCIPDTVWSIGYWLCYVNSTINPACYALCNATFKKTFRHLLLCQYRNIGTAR

Caspase-1 = target: T2, Caspase-1 (Homo sapiens, UniProt P29466); set-up: species or system Escherichia coli;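 note: Caspase-1 enzyme inhibition assay with a peptide substrate; in other assays of this panel Not Active means under 50% inhibition at 10 µM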
T2 sequence (P29466 whole entry): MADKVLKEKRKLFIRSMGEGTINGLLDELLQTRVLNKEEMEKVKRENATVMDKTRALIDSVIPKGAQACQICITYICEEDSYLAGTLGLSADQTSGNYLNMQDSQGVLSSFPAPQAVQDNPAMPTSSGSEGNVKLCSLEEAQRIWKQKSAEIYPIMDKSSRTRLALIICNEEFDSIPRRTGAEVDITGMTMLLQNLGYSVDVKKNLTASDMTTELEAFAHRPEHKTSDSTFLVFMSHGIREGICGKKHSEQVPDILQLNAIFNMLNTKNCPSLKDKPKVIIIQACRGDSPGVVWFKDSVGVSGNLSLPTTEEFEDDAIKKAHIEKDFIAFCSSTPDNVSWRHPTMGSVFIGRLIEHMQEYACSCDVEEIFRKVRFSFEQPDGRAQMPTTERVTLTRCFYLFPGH

Cytochrome P450 3A4 = Cytochrome P450 3A4 (Homo sapiens, UniProt P08684); settings: bti-tn-5b1-4; note: in other assays of this panel Not Active means under 50% inhibition at 10 µM
Cytochrome P450 3A4, sequence (P08684 whole entry): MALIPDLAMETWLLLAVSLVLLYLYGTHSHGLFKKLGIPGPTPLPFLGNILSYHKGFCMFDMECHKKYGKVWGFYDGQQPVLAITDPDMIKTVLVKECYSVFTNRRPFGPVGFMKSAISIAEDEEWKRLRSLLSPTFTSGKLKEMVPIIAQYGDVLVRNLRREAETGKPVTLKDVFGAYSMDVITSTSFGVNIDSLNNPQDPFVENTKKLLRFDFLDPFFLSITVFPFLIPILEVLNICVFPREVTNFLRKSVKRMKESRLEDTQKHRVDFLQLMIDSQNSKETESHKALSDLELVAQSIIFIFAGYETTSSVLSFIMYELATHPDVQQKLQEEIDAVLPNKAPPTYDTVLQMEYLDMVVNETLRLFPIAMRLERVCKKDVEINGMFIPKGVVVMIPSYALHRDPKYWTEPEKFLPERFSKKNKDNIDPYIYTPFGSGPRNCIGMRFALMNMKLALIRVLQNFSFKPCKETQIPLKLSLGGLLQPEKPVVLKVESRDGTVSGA

CC(C)Cn1cnc2c(N)nc3ccccc3c21 [IMIQUIMOD]
Not Active: IC50 [1] | IC50 [2] | Ki [2] | IC50 [3] | Ki [3] | IC50 [4] | Ki [4] | IC50 [5] | IC50 (Caspase-1) | IC50 (Cytochrome P450 3A4) | Ki (Cytochrome P450 3A4)

POVIDONE
Not Active: IC50 [1] | Ki [1] | IC50 [2] | Ki [2] | IC50 [3] | Ki [3] | IC50 [4] | Ki [4] | IC50 [5] | Ki [5] | IC50 (Caspase-1) | Ki (Caspase-1) | IC50 (Cytochrome P450 3A4) | Ki (Cytochrome P450 3A4)

Nc1ccc(Cc2ccc(N)cc2)cc1
Not Active: IC50 [1] | IC50 [2] | Ki [2] | IC50 [3] | Ki [3] | IC50 [4] | Ki [4] | IC50 [5] | IC50 (Caspase-1) | IC50 (Cytochrome P450 3A4) | Ki (Cytochrome P450 3A4)

CARBOXYMETHYLCELLULOSE
Not Active: IC50 [1] | Ki [1] | IC50 [2] | Ki [2] | IC50 [3] | Ki [3] | IC50 [4] | Ki [4] | IC50 [5] | Ki [5] | IC50 (Caspase-1) | Ki (Caspase-1) | IC50 (Cytochrome P450 3A4) | Ki (Cytochrome P450 3A4)

c1ccc2sc(SSc3nc4ccccc4s3)nc2c1 [BENZOTHIAZYL DISULFIDE]
Not Active: IC50 [1] | IC50 [2] | Ki [2] | IC50 [3] | Ki [3] | IC50 [4] | Ki [4] | IC50 [5] | IC50 (Caspase-1) | IC50 (Cytochrome P450 3A4) | Ki (Cytochrome P450 3A4)

O=C1c2ccccc2C(=O)C1c1ccccc1 [PHENINDIONE]
Not Active: IC50 [1] | IC50 [2] | Ki [2] | IC50 [3] | Ki [3] | IC50 [4] | Ki [4] | IC50 [5] | IC50 (Caspase-1) | IC50 (Cytochrome P450 3A4) | Ki (Cytochrome P450 3A4)

Nc1ccc(C(=O)O)c(O)c1 [AMINOSALICYLIC ACID]
Not Active: IC50 [1] | IC50 [2] | Ki [2] | IC50 [3] | Ki [3] | IC50 [4] | Ki [4] | IC50 [5] | IC50 (Caspase-1) | IC50 (Cytochrome P450 3A4) | Ki (Cytochrome P450 3A4)

OC[C@H]1O[C@@H]2O[C@H]3[C@H](O)[C@@H](O)[C@@H](O[C@H]4[C@H](O)[C@@H](O)[C@@H](O[C@H]5[C@H](O)[C@@H](O)[C@@H](O[C@H]6[C@H](O)[C@@H](O)[C@@H](O[C@H]7[C@H](O)[C@@H](O)[C@@H](O[C@H]1[C@H](O)[C@H]2O)O[C@@H]7CO)O[C@@H]6CO)O[C@@H]5CO)O[C@@H]4CO)O[C@@H]3CO [ALFADEX]
Not Active: IC50 [1] | IC50 [2] | Ki [2] | IC50 [3] | Ki [3] | IC50 [4] | Ki [4] | IC50 [5] | IC50 (Caspase-1) | IC50 (Cytochrome P450 3A4) | Ki (Cytochrome P450 3A4)

COC(=O)C[C@](O)(CCC(C)(C)O)C(=O)O[C@@H]1C(OC)=C[C@]23CCCN2CCc2cc4c(cc2[C@H]13)OCO4 [HARRINGTONINE]
Not Active: IC50 [1] | IC50 [2] | Ki [2] | IC50 [3] | Ki [3] | IC50 [4] | Ki [4] | IC50 [5] | IC50 (Caspase-1) | IC50 (Cytochrome P450 3A4) | Ki (Cytochrome P450 3A4)

O=C1CN(/N=C/c2ccc([N+](=O)[O-])o2)C(=O)N1 [NITROFURANTOIN]
Not Active: IC50 [1] | IC50 [2] | Ki [2] | IC50 [3] | Ki [3] | IC50 [4] | Ki [4] | IC50 [5] | IC50 (Caspase-1) | IC50 (Cytochrome P450 3A4) | Ki (Cytochrome P450 3A4)

C[N+](C)(C)CCOC(N)=O.[Cl-] [CARBACHOL]
Not Active: IC50 [1] | IC50 [2] | Ki [2] | IC50 [3] | Ki [3] | IC50 [4] | Ki [4] | IC50 [5] | IC50 (Caspase-1) | IC50 (Cytochrome P450 3A4) | Ki (Cytochrome P450 3A4)

O=C(NCCN1CCOCC1)c1ccc(Cl)cc1 [MOCLOBEMIDE]
Not Active: IC50 [1] | IC50 [2] | Ki [2] | IC50 [3] | Ki [3] | IC50 [4] | Ki [4] | IC50 [5] | IC50 (Caspase-1) | IC50 (Cytochrome P450 3A4) | Ki (Cytochrome P450 3A4)

CC12CCC(CC1)C(C)(C)O2 [EUCALYPTOL]
Not Active: IC50 [1] | IC50 [2] | Ki [2] | IC50 [3] | Ki [3] | IC50 [4] | Ki [4] | IC50 [5] | IC50 (Caspase-1) | IC50 (Cytochrome P450 3A4) | Ki (Cytochrome P450 3A4)

CC(N)Cc1c[nH]c2ccc(OCc3cccs3)cc12 (centres undefined) [BW-723C86]
Not Active: IC50 [1] | IC50 [2] | Ki [2] | IC50 [3] | Ki [3] | IC50 [4] | Ki [4] | IC50 [5] | IC50 (Caspase-1) | IC50 (Cytochrome P450 3A4) | Ki (Cytochrome P450 3A4)

CCN1C[C@]2(COC)[C@H](O)C[C@H](OC)[C@@]34[C@@H]5C[C@@]6(O)[C@H](OC(=O)c7ccccc7)[C@@H]5[C@@](OC(C)=O)([C@@H]([C@H](OC)[C@H]23)[C@@H]14)[C@@H](O)[C@@H]6OC [ACONITINE]
Not Active: IC50 [1] | IC50 [2] | Ki [2] | IC50 [3] | Ki [3] | IC50 [4] | Ki [4] | IC50 [5] | IC50 (Caspase-1) | IC50 (Cytochrome P450 3A4) | Ki (Cytochrome P450 3A4)

OC[C@H]1OC2C3[C@@H](CO)OC(O[C@H]4[C@H](O)[C@@H](O)[C@@H](O[C@H]5[C@H](O)[C@@H](O)[C@@H](O[C@H]6[C@H](O)[C@@H](O)[C@@H](O[C@H]7[C@H](O)[C@@H](O)[C@@H](O[C@H]8[C@H](O)[C@@H](O)[C@@H](O[C@H]9[C@H](O)[C@@H](O)C(OC1[C@H](O)[C@H]2O)O[C@@H]9CO)O[C@@H]8CO)O[C@@H]7CO)O[C@@H]6CO)O[C@@H]5CO)O[C@@H]4CO)[C@H](O)[C@H]3O
Not Active: IC50 [1] | IC50 [2] | Ki [2] | IC50 [3] | Ki [3] | IC50 [4] | Ki [4] | IC50 [5] | IC50 (Caspase-1) | IC50 (Cytochrome P450 3A4) | Ki (Cytochrome P450 3A4)

CN(CCOc1ccc(C[C@H](Nc2ccccc2C(=O)c2ccccc2)C(=O)O)cc1)c1ccccn1
Not Active: IC50 [1] | IC50 [2] | Ki [2] | IC50 [3] | Ki [3] | IC50 [4] | Ki [4] | IC50 [5] | IC50 (Caspase-1) | IC50 (Cytochrome P450 3A4) | Ki (Cytochrome P450 3A4)

CCN1CCN(c2cc3c(cc2F)c(=O)c(C(=O)O)cn3C2CC2)CC1 [ENROFLOXACIN]
Not Active: IC50 [1] | IC50 [2] | Ki [2] | IC50 [3] | Ki [3] | IC50 [4] | Ki [4] | IC50 [5] | IC50 (Caspase-1) | IC50 (Cytochrome P450 3A4) | Ki (Cytochrome P450 3A4)
